Tests used:
NGAL = target: T1, NGAL (Homo sapiens, UniProt P80188); test: NGAL-induced IL6 secretion in human cardiac fibroblasts (ELISA); assay type: cell-based; conditions: NGAL 10 ng/ml, FIGS. 1 and 2 panel A
T1 construct: purchased R&D Systems
Procedure: Cell Culture Human cardiac fibroblasts (primary culture) were obtained from Promocell and maintained in medium (Fibroblast Media 3). Cells were cultured according to the manufacturer's instructions and used between passages 5 and 7. Cells were stimulated with aldosterone (10^-8 M, Sigma) or recombinant hNGAL (500 ng/mL, R&D Systems) for 24 h for protein analysis. Mouse kidney fibroblasts (MKF), were isolated from Wild Type (WT) mice. Briefly, mice 7 to 8 weeks were sacrificed by cervical dislocation and kidneys were cleaned and rinsed in cold DPBS (Dulbecco's Phosphate-Buffered Saline). The renal cortex was minced and incubated in Dulbecco's modified eagle medium/Nutrient mixture F-12 (DMEM/F12, Sigma) containing 1 mg/mL collagenase A (Roche) during 25 minutes at 37° C. The digestion was inactivated by adding culture medium (DMEM/F12+10% FBS) then the cell suspension was passed through a 100-μm cell strainer. After centrifugation, the pellet (containing MKF) was diluted with culture medium then plated in 75 cm^2 culture flask. After 24 hours MKF were washed with DPBS before replacement of fresh culture medium. Thereafter, culture medium was changed every 48 hours. Once 70-80% confluent, MKF were trypsinized and plated in 12 or 6-well plates. For experimental use, MKF were starved with culture medium containing only 3% FBS. MKF were treated with mNGAL (500 ng/mL, R&D Systems) for 24 h for gene expression analysis.
NGAL, IL6 and collagen type I concentrations were measured in cardiac tissue and cell supernatants, respectively, by ELISA according to the manufacturer's instructions (R&D Systems).
The inhibitory activity of the compounds was evaluated on the NGAL-induced IL6 secretion (NGAL 10 ng/ml) in human cardiac fibroblasts.
Inhibitory activities of 23 second generation compounds derived from GPZ614741 and GPZ058225 were evaluated on the NGAL-induced IL6 secretion (NGAL 10 ng/ml) in human cardiac fibroblasts.

human plasma protein = test: Binding to human plasma protein; assay type: in vitro ADME
Procedure: (§1) Two specific toxicity assays have been performed to assess hepatoxicity and cardiotoxicity. Hepatotoxicity was evaluated in isolated hepatocytes from swiss mice and determined by the MTT colorimetric assay. Cardiotoxicity was evaluated using the commercially available Predictor hERG fluorescence polarization kit (Thermo Fisher Scientific). Several ADME assays have been carried out on the compounds generated throughout the project. The following experiments were undertaken: Stability in human microsomes, binding to human plasma protein, and CYP3A4 inhibition assay (Vivid CYP3A4 assay, Thermo Fisher Scientific). Physico-chemical properties were also assessed such as aqueous solubility and chemical stability.

[1] = Binding to human plasma protein; assay type: in vitro ADME; conditions: human, human plasma protein; read-out: hPPB (converted)
Procedure: as §1

human microsomes = test: Stability in human microsomes; assay type: in vitro ADME
Procedure: as §1

[2] = system: Myocardial Infarction Model; test: Cardiac function (echocardiography, LV hemodynamics) in the myocardial infarction model; assay type: in vivo, mice; conditions: MI model, 100 mg/kg/day in food admix, three months
Procedure: 8-12 weeks old mice (WT C57B16 for GP1 compound experiments) or 8-12 weeks old mice with genetic inactivation of lcn2 (as described in Martinez-martinez et al., Hypertension 2017, December; 70(6):1148-1156) have been used. LV diastolic and systolic diameters were measured in anesthetized (isofluorane 1.5%) mice, according to the American Society of Echocardiography's leading-edge method (using Vivid 7 echograph a 14 Mhz probe). In addition, LV outflow velocity was measured by pulsed waves, and CO was calculated as follows: CO=aortic VTI×[πx·(LV outflow diameter/2)^2]×heart rate, where VTI is velocity-time integral.
LV hemodynamic was assessed as described previously.
Mice were anesthetized (chloral 320 mg·kg−1, IP) and the carotid artery cannulated with a pressure-volume catheter (SPR839, Millar-Instruments, USA) and the catheter was advanced into the LV. Pressure-volume loops were obtained at baseline and during loading by gently occluding the abdominal aorta. LV end-systolic and end-diastolic pressures, dP/dtmax/min, LV relaxation constant tau and were measured/calculated with IOX software (EMKA, France).

[3] = system: Myocardial Infarction Model; test: Profibrotic, IL6 and inflammatory target tissue content in the myocardial infarction model; assay type: in vivo, mice; conditions: MI model, 100 mg/kg/day in food admix, three months
Procedure: Total protein aliquots of 20 μg were prepared from cardiac homogenates and electrophoresed on SDS polyacrylamide gels and transferred to Hybond-c Extra nitrocellulose membranes (Amersham Biosciences). Membranes were incubated with primary antibodies for: NGAL (Abcam; dilution 1:500), Collagen type III (Santa Cruz; dilution 1:500), a-SMA (Sigma; dilution 1:1000), CTGF Abcam; dilution 1:500), GDF-15 (Abcam; dilution 1:500), fibronectin (Millipore, 1:500), Galectin-3 (Thermo, 1:1000), Cardiotrophin-1 (Abcam, 1:500), osteopontin (Santa Cruz, 1:1000), cd3 (Abcam, 1:500), cd68 (Abcam, 1:500), cd80 (Santa Cruz, 1:500) and β-actin (Sigma; dilution 1:1000) as a loading control. […] After densitometric analyses, optical density values were expressed as arbitrary units. Results are expressed as an n-fold increase over the values of the control group in densitometric arbitrary units. NGAL, IL6 and collagen type I concentrations were measured in cardiac tissue and cell supernatants, respectively, by ELISA according to the manufacturer's instructions (R&D Systems).

hERG channel = target: T2, hERG channel (Homo sapiens, UniProt Q12809); test: Cardiotoxicity, Predictor hERG fluorescence polarization kit; assay type: binding
T2 construct: purchased Thermo Fisher Scientific
T2 sequence (Q12809 whole entry): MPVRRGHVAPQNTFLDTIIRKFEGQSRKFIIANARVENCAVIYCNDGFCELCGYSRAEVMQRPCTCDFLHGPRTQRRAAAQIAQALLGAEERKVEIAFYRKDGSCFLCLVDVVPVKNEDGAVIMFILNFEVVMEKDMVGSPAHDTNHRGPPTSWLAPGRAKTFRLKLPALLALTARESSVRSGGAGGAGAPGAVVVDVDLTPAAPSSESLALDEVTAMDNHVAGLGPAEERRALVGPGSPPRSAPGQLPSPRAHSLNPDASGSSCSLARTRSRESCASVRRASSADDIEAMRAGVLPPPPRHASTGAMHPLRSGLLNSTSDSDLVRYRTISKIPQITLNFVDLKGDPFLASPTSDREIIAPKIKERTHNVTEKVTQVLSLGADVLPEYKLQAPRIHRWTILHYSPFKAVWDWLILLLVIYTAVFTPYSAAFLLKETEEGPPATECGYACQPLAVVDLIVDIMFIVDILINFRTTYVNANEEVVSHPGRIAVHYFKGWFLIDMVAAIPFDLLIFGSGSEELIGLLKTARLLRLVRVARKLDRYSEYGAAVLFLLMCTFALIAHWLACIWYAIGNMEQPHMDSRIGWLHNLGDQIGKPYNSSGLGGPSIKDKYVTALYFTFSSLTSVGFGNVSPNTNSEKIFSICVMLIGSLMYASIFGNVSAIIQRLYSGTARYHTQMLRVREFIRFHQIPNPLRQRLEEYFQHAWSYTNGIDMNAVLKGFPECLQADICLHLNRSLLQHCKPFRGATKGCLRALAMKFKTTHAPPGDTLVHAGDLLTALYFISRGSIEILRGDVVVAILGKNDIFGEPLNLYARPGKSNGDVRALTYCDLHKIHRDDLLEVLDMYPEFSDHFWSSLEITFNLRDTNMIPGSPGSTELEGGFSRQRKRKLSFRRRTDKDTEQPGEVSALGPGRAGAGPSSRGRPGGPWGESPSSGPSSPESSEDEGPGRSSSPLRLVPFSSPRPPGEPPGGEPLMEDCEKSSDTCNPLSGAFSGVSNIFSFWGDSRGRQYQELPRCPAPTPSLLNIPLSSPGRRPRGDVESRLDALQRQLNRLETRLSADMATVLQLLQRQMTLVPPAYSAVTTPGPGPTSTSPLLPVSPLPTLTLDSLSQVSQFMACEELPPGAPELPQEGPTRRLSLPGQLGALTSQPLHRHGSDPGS
Procedure: as §1

T1 sequence (P80188 21-198): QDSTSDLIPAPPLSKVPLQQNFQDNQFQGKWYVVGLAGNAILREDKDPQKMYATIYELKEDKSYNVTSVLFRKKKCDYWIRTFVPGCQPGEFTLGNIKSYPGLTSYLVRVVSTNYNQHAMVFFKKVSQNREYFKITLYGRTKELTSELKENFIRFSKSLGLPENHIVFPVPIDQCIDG

CC(=O)c1cccc(S(=O)(=O)NCc2ccccc2-n2cccn2)c1 [GPZ614741]
NGAL-induced IL6 secretion (NGAL): inhibited | PPB (binding to plasma proteins) (human plasma protein): low | fraction unbound [1]: 0.288 | microsomes degradation, left after 2 h (human microsomes; after 2 h): 2.2% | Micro Stability (human microsomes; human microsomes): 2.19% | fractional shortening (LV Frac. Short.) ([2]; FIG. 7 panel A): significant increase | stroke volume ([2]; FIG. 7 panel D): increased | cardiac output ([2]; FIG. 7 panel E): increased | LV diastolic diameter (LV Diast. Diam.) ([2]; FIG. 7 panels B-C): slight although statistical non-significant decrease | LV systolic diameter (LV Syst. Diam.) ([2]; FIG. 7 panels B-C): slight although statistical non-significant decrease | LV end-systolic pressure (LVESP) ([2]; FIG. 8 panel A): not modified | LV dP/dtmax ([2]; FIG. 8 panel B): significant increase | LV end-diastolic pressure (LVEDP) ([2]; FIG. 8 panel C): tended to be reduced | LV dP/dtmin ([2]; FIG. 8 panel D): increased | LV relaxation constant Tau ([2]; FIG. 8 panel E): decreased | aSMA tissue content ([3]; FIG. 10 panel A): significant prevention of up regulation | GDF15 tissue content ([3]; FIG. 10 panel B): significant prevention of up regulation | CTGF tissue content ([3]; FIG. 10 panel C): significant prevention of up regulation | Col1 tissue content ([3]; FIG. 10 panel D): significant prevention of up regulation | IL6 tissue content ([3]; FIG. 11 panel A): significant prevention of up regulation | CD68 tissue content ([3]; FIG. 12 panel C): significant prevention of up regulation | CD 80 tissue content ([3]; FIG. 12 panel D): significant prevention of up regulation | CD86 tissue content ([3]; FIG. 12 panel E): significant prevention of up regulation | CD3 tissue content ([3]; FIG. 12 panels A, B): significant prevention of up regulation | cardiotoxicity (hERG predictor assay) (hERG channel): no toxicity | Cardiotoxicity % (100 = no toxicity) (hERG channel; 100 = no toxicity): 101.76 ± 2.48%
